Measurements from patent US6617312B1, “Vasoactive amine binding molecules” (Oxford Vacs Ltd., priority 1996, dated 2003).

How the values were obtained:
[1] = biological target: Rhipicephalus appendiculatus rMS-HBP1, His6-tagged, SEQ ID NO: 20 (Rhipicephalus appendiculatus, UniProt O77422); conditions: ^3H-histamine ~0.3 pmol (11,200 cpm), rMS-HBP1 ~100 pmol, 5 measurements
[2] = biological target: T1, Rhipicephalus appendiculatus rMS-HBP1, His6-tagged, expressed in Spodoptera frugiperda Sf21 cells (baculovirus), SEQ ID NO: 20 (Rhipicephalus appendiculatus, UniProt O77422); test: Histamine binding assay (radiolabelled histamine, PEG precipitation, Scatchard), rMS-HBP1
T1 construct: Gln-Ile-(His)6 (C); made in house; host or cells: Spodoptera frugiperda Sf21 cells (baculovirus BacPak6)
Method: (§1) Construction of clones. FS-HBP1, FS-HBP2 and MS-HBP1 were expressed as histidine-tagged proteins (rFS-HBP1, rFS-HBP2 and rMS-HBP1) in Spodoptera frugiperda ovarian cells (Sf21).
(§2) This plasmid pACC129.1-FS1.HIS was also used for expression of histidine-tagged FS-HBP2 and MS-HBP1. The FS-HBP1 cDNA was deleted using SacI and BamHI thus leaving the histidine codons intact. An upstream SacI and a downstream BglII site (BglII and BamHI create compatible overhangs) were added to the FS-HBP2 and MS-HBP1 coding regions by PCR. […] The forward primer, in the case of FS-HBP2 was: 5′-[…] (SEQ ID NO:5); the reverse primer was: 5′-[…] (SEQ ID NO:6). In the case of MS-HBP1 the forward primer was: 5′-[…] (SEQ ID NO:7), and the reverse primer was: 5′-[…] (SEQ ID NO:8).
(§3) Following PCR, the derived cDNAs were inserted into the vector. A Gln-Ile-(HIS)6 sequence was thus added to the carboxyterminus of the MS-HBP1 translation product, and Ile-(His)6 to the FS-HBP2 translation product.
(§4) The baculovirus expression system was used for expression of the three tagged polypeptides. Spodoptera (Sf21) cells were transfected with the transfer vectors and baculovirus (BacPak6; Clontech). Recombinant virus was amplified as according to Kitts and Possee (1993) BioTechniques 14:810-817). The VABPs are clearly secretion products since they are mainly found in the culture medium of transfected cells as well as in saliva. […]

[3] = biological target: T2, Rhipicephalus appendiculatus rFS-HBP2, His6-tagged, expressed in Spodoptera frugiperda Sf21 cells (baculovirus), SEQ ID NO: 18 (Rhipicephalus appendiculatus, UniProt O77421); test: Histamine binding assay (radiolabelled histamine, PEG precipitation, Scatchard), rFS-HBP2
T2 construct: Ile-(His)6 (C); made in house; host or cells: Spodoptera frugiperda Sf21 cells (baculovirus BacPak6)
Method: as §1, §2, §3, §4

[4] = biological target: T3, Rhipicephalus appendiculatus rFS-HBP1, His6-tagged, expressed in Spodoptera frugiperda Sf21 cells (baculovirus), SEQ ID NO: 16 (Rhipicephalus appendiculatus, UniProt O77420); test: Histamine binding assay (radiolabelled histamine, PEG precipitation, Scatchard), rFS-HBP1
T3 construct: Gly-Ile-(His)6 (C); made in house; host or cells: Spodoptera frugiperda Sf21 cells (baculovirus BacPak6)
Method: as §1
In order to append the His6 tag, the coding region of FS-HBP1 was first amplified using the polymerase chain reaction (PCR). […] The forward primer used was: 5′-[…] (SEQ ID NO:3); the reverse primer was: 5′-[…] (SEQ ID NO:4). The primers were designed so that a SacI site was added upstream of the start codon, whilst the stop codon was replaced by a BamHI site, followed by 6 histidine codons and an SpeI site comprising a TAG stop codon. The PCR product was cut with SacI and SpeI. The latter enzyme creates a compatible overhang with XbaI, enabling the fragment to be ligated between the SacI and XbaI sites of the pAcC129.1 transfer vector (Livingstone and Jones (1989) Nucleic Acids Res. 17:2366), generating the plasmid pACC129.1-FS1.HIS. This plasmid therefore contained the sequence Gly-Ile-(His)6 appended to the carboxy terminus of the FS-HBP1 translation product.
The baculovirus expression system was used for expression of the three tagged polypeptides. Spodoptera (Sf21) cells were transfected with the transfer vectors and baculovirus (BacPak6; Clontech). Recombinant virus was amplified as according to Kitts and Possee (1993) BioTechniques 14:810-817). […]

[5] = biological target: Rhipicephalus appendiculatus FS-HBP2 (SEQ ID NO: 18) truncated version lacking the 45 N-terminal amino acids, bacterially expressed (Rhipicephalus appendiculatus, UniProt O77421)
[6] = biological target: Rhipicephalus appendiculatus FS-HBP2 (SEQ ID NO: 18) truncated version lacking the 28 C-terminal amino acids, bacterially expressed (Rhipicephalus appendiculatus, UniProt O77421)
[7] = system: rVABPs; test: Competition experiment: displacement of 3H-histamine from rVABPs by histamine-like compounds; conditions: cold histamine, reference amount

Chain of Rhipicephalus appendiculatus rMS-HBP1, His6-tagged, SEQ ID NO: 20 (O77422 19-200): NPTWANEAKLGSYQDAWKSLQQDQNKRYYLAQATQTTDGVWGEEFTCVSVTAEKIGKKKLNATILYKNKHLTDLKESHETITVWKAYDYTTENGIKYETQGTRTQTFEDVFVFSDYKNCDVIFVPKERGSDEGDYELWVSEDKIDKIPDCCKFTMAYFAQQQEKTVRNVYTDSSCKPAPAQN
T1 sequence (O77422 19-200, added parts left off): as the sequence (O77422 19-200) above
Chain of Rhipicephalus appendiculatus FS-HBP2 (SEQ ID NO: 18) truncated version lacking the 45 N-terminal amino acids, bacterially expressed (O77421 65-190): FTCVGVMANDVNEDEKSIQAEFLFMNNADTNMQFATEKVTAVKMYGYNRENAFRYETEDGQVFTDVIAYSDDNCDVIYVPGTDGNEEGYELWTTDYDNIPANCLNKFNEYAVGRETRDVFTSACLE
T3 sequence (O77420 19-190, added parts left off): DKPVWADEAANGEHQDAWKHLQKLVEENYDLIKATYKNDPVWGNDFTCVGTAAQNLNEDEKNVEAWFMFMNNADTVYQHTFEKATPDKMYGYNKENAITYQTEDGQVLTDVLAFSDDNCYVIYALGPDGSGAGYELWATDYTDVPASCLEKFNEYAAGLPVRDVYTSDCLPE
T2 sequence (O77421 20-190, added parts left off): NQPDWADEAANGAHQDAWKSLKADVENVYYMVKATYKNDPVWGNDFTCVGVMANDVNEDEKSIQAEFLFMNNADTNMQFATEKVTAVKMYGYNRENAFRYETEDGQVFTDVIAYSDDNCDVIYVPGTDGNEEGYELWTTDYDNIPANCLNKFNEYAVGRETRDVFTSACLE
Chain of Rhipicephalus appendiculatus FS-HBP2 (SEQ ID NO: 18) truncated version lacking the 28 C-terminal amino acids, bacterially expressed (O77421 20-162): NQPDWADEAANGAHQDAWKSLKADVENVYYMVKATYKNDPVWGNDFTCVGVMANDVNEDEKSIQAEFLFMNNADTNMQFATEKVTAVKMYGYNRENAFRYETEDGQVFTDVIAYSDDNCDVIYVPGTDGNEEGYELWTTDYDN

SMILES | bound radioligand, without added histamine [1] | Kd [2] [nM] | Kd [3] [nM] | Kd [4] [nM] | binding to histamine [5] | binding to histamine [6] | bound radioligand, supplemented with histamine ([1]; plus histamine 0.5 pmol) | displacement of ^3H-histamine from the binding sites [7]
NCCc1c[nH]cn1 [^3H-histamine] | 6,840±150 cpm | – | – | – | – | – | – | –
NCCc1c[nH]cn1 [histamine] | – | 1.2 | 1.7 | 78 | do not bind to histamine at all | do not bind to histamine at all | 7,560±110 cpm | more than 95%
